Measurements taken from patent US5662604A, “Monitoring method of renal lesions without clinical signs” (Asahi Kasei Kogyo Kabushiki Kaisha, priority 1995, dated 1997).
“And” between values parts separate entries of the source, which are not always exact repeats. Equal values may be shown once. Where a name gives a salt, the structure may show the parent alone.

Key:
[1] = test system: membrane component of rat renal cortex; test: Biological activity (cAMP generation, radioimmunoassay) by parallel test against bovine-PTH (1-84) standard; type: biochemical
Source text: Biological activity of teriparatide acetate unit can be determined by a parallel test wherein reacting a membrane component of rat renal cortex with teriparatide acetate and assaying generated cAMP by radioimmunoassay. The specific activity of teriparatide acetate is 3,300 units/mg by a parallel test using the standard substance of bovine-PTH (1-84).

[2] = test system: urinary excretion of NAG; conditions: intravenous; IHP and PHP patients; Calcif. Tissue Int., 45(6):375 (1989); cited from earlier work
[3] = test system: urinary NAG; test: Urinary NAG response to intravenous h-PTH(1-34) in patients with diabetes mellitus having AER below 15 μg/min (Example 2); type: in vivo
Description: The predetermined dose of h-PTH(1-34), for example, is administered intravenously in the patients to carry out the monitoring method of the present invention. The patients are diabetes mellitus patients with an AER value below 15 μg/min., showing latent abnormal renal function without detecting manifestation of abnormal renal function. The h-PTH (1-34) is, for example, administered to these patients. Urinary excreted NAG of the patients can be assayed by hydrolysing a substrate NAG, i.e. sodium-cresol-sulfophthaleinyl-N-acetyl-β-D-glucosaminide (MCP-NAG), by NAG, coloring the thus generated m-cresol purple under alkaline condition by adding sodium carbonate and measuring colorimetrically 580 nm. Urinary NAG value is expressed, for example, as U/l (NAG active unit in one liter of urine). Urinary excreted NAG of the patients before administration of PTH and that after administration of PTH are measured, and an increased ratio of urinary excreted NAG value in the post-administration of PTH against the urinary excreted NAG value in the pre-administration of PTH is calculated.
Urine of the pre-administration is collected by excretion after accumulating the urine at a constant time interval, preferably 60 min.±10 min., previously after excreting urine in the pre-administration of PTH. Collecting urine is preferably performed immediately before administration of PTH. Urine of the post-administrationis collected after accumulating the urine under the same condition in the pre-administration, i.e. after a constant time interval of 60 min.±10 min., because of performing excretion (collection) of urine immediately before administration of PTH. For effective accumulation of urine, a suitable amount of drinking water, for example 100-300 ml, may be given to the patients. Urinary NAG value can be measured using a specimen of 0.05-1 ml. Since a suitable volume of water is given to the patients, a correction of the NAG value is needed. Accordingly, a parameter of urine volume and concentration, for example another component such as urinary creatinine concentration (expressed as mg/dl) is measured, and NAG value per creatinine value is obtained. A corrected value of NAG for creatinine (Unit: U/g Cr) is calculated by;
Urinary NAG (U/l ).div.urinary creatinine (mg/dl)×100.
Method: Eighteen (18) patients with diabetes mellitus having AER within normal range (below 15 μg/min.) were used.
Sixty minutes prior to intravenous administration of 100 units of h-PTH(1-34), complete excretion of urine was performed. 200 ml of drinking water were given to the individual volunteers and urine was collected immediately before administration of h-PTH(1-34). Then 100 units of h-PTH(1-34) were administered intravenously and 200 ml of drinking water were given for intake, and after 60 minutes urine was collected. Each of urinary NAG and creatinine in 0.5 ml of urine was measured to calculate the increased ratio of urinary excreted NAG. The NAG value was corrected by creatinine value.
Tables 2 and 3 show the various parameters in pre- and post-administration of PTH for the patients of diabetes mellitus showing the value with the normal range of AER (below 15 μg/min.).

[4] = test system: urinary NAG; test: Urinary NAG response to intravenous h-PTH(1-34) in healthy male volunteers (Referential Example); type: in vivo
Description: Method: Fourteen (14) healthy male volunteers were used.
Prior to 60 minutes for intravenous administration of h-PTH(1-34) 100 units, complete excretion of urine was performed. 200 ml of drinking water was given to the individual volunteers and urine was collected immediately before administration of […]. Then, h-PTH(1-34) 100 units were administered intravenously and 200 ml of drinking water was given to the volunteers, and after 60 minutes urine was again collected. Each of urinary NAG and creatinine in 0.5 ml of urine was measured, and an increased ratio of urinary excreted NAG was calculated. NAG value was corrected by creatinine value.
For an assay of NAG, NAG Test Shionogi (Shionogi Pharm. Co., assay method: mcp colorimetry) was used, and for that of creatinine, creatinine-HR (Wako Pure, Chem. Co., assay method: alkali picric acid method) was used. Table 1 illustrates the various parameters, i.e. NAG, AER and serum Cr, in pre- or post-administration of PTH for healthy male volunteers.
NAG value corrected by creatinine (unit: U/g Cr) is calculated by the equation;
Urinary NAG (Unit:U/l).div.urinary creatinine (unit:mg/dl)×100.
The normal range of urinary NAG value after administration of PTH in healthy volunteers is defined according to the results obtained hereinabove as follows. The normal range is calculated by mean ±2 S.D.

[5] = mean of 18 diabetic patients, 100 units i.v., 60 min
[6] = of 18 diabetic patients, 100 units i.v.
[7] = mean of 14 healthy male volunteers, 100 units i.v., 60 min

Compound: CC[C@H](C)[C@H](NC(=O)[C@H](CCC(=O)O)NC(=O)[C@H](CO)NC(=O)[C@@H](NC(=O)[C@@H](N)CO)C(C)C)C(=O)N[C@@H](CCC(N)=O)C(=O)N[C@@H](CC(C)C)C(=O)N[C@@H](CCSC)C(=O)N[C@@H](Cc1cnc[nH]1)C(=O)N[C@@H](CC(N)=O)C(=O)N[C@@H](CC(C)C)C(=O)NCC(=O)N[C@@H](CCCCN)C(=O)N[C@@H](Cc1cnc[nH]1)C(=O)N[C@@H](CC(C)C)C(=O)N[C@@H](CC(N)=O)C(=O)N[C@@H](CO)C(=O)N[C@@H](CCSC)C(=O)N[C@@H](CCC(=O)O)C(=O)N[C@@H](CCCN=C(N)N)C(=O)N[C@H](C(=O)N[C@@H](CCC(=O)O)C(=O)N[C@@H](Cc1c[nH]c2ccccc12)C(=O)N[C@@H](CC(C)C)C(=O)N[C@@H](CCCN=C(N)N)C(=O)N[C@@H](CCCCN)C(=O)N[C@@H](CCCCN)C(=O)N[C@@H](CC(C)C)C(=O)N[C@@H](CCC(N)=O)C(=O)N[C@@H](CC(=O)O)C(=O)N[C@H](C(=O)N[C@@H](Cc1cnc[nH]1)C(=O)N[C@@H](CC(N)=O)C(=O)N[C@@H](Cc1ccccc1)C(=O)O)C(C)C)C(C)C [Teriparatide hydrochloride]
- Specific activity of the bulk used for the injection ([1]; Example 1, Teriparatide hydrochloride): 3,333 teriparatide acetate units/mg

Compound: h-PTH(1-34): h-PTH(1-34) having molecular weight about 4,400 with 34 imino acids sequence
- Urinary excretion of NAG (in words) [2]: increased urinary excretion of NAG in only IHP
- Urinary NAG post- ([3]; individual diabetic patients, AER below 15 μg/min, 100 units h-PTH(1-34) i.v., urine 60 min after): 7.3 U/gCr and 7.8 U/gCr and 15.6 U/gCr and 7.5 U/gCr and 11.0 U/gCr and 12.2 U/gCr and 6.8 U/gCr and 17.5 U/gCr and 10.1 U/gCr and 15.3 U/gCr and 4.5 U/gCr and 23.9 U/gCr and 13.4 U/gCr and 15.9 U/gCr and 9.7 U/gCr and 6.7 U/gCr and 16.7 U/gCr
- Urinary NAG changes ([3]; individual diabetic patients, post minus pre, 100 units h-PTH(1-34) i.v., 60 min): 3.4 U/gcr and 3.9 U/gcr and 7.9 U/gcr and 3.7 U/gcr and 7.1 U/gcr and 4.9 U/gcr and 7.5 U/gcr and 5.8 U/gcr and 11.7 U/gcr and 2.2 U/gcr and 12.7 U/gcr and 8.1 U/gcr and 9.3 U/gcr and 5.1 U/gcr
- Urinary NAG changes in ratio ([3]; individual diabetic patients, post/pre, 100 units h-PTH(1-34) i.v., 60 min): 1.9 and 2.0 and 2.8 and 1.7 and 2.2 and 1.8 and 2.4 and 4.3 and 1.6 and 2.1 and 2.5 and 2.3 and 3.4
- Urinary NAG changes in ratio, mean [3, 5]: 2.3
- Urinary NAG changes, mean [3, 5]: 6.5 U/gcr
- Urinary NAG post-, mean [3, 5]: 11.8 U/gCr
- Number of patients with normal increased ratio of urinary excreted NAG (2.4-4.7) [3, 6]: 6 subjects
- Number of patients with significantly decreased increased ratio of urinary NAG (2.3), diagnosed as renal lesion without clinical symptoms of nephropathy [3, 6]: 12 cases
- Urinary excretion of NAG (in words) ([4]; administration of human-PTH (1-34) in healthy volunteers): increased urinary excretion of NAG
- Normal range of increased ratio of urinary NAG in post-administration to pre-administration ([4]; healthy volunteers, mean ±2 S.D.): 2.4-4.7
- Urinary NAG post- ([4]; individual healthy male volunteers, 100 units h-PTH(1-34) i.v., urine 60 min after): 5.9 U/gCr and 8.6 U/gCr and 10.7 U/gCr and 5.7 U/gCr and 7.3 U/gCr and 11.0 U/gCr and 14.7 U/gCr and 17.0 U/gCr and 10.0 U/gCr and 19.3 U/gCr and 6.4 U/gCr and 8.3 U/gCr and 9.8 U/gCr
- Urinary NAG changes ([4]; individual healthy male volunteers, post minus pre, 100 units h-PTH(1-34) i.v., 60 min): 4.3 U/gcr and 6.4 U/gcr and 7.4 U/gcr and 4.4 U/gcr and 4.9 U/gcr and 8.1 U/gcr and 9.7 U/gcr and 11.5 U/gcr and 7.3 U/gcr and 15.0 U/gcr and 5.8 U/gcr and 6.3 U/gcr and 6.2 U/gcr
- Urinary NAG changes in ratio ([4]; individual healthy male volunteers, post/pre, 100 units h-PTH(1-34) i.v., 60 min): 3.8 and 3.9 and 3.3 and 4.4 and 3.1 and 3.7 and 2.9 and 3.6 and 4.1 and 3.4 and 2.8 and 2.6
- Urinary NAG changes in ratio (increased ratio post-/pre-administration), mean [4, 7]: 3.5 and 3.5±0.6
- Urinary NAG changes, mean [4, 7]: 7.3 U/gcr
- Urinary NAG post-, mean [4, 7]: 10.3 U/gCr and 10.3±4.1 U/gCr

Compound: teriparatide acetate
- Specific activity ([1]; parallel test using standard substance of bovine-PTH (1-84)): 3,300 units/mg
